Residues, ends and D or L forms follow the SMILES beside them. *: point of attachment. Cbz = O=C(OCc1ccccc1)*
Experiments:
[1] = tested on: primary human fibroblasts (HDF) in hypoxic chamber; assay: sVEGF ELISA in primary fibroblasts under hypoxia; assay type: cell-based; details: 48 h
From the text: FIG. 9: USP7 inhibition decreases VEGF levels in fibroblasts under hypoxia.
In response to wounding and during tumour growth, activated fibroblasts secrete synthesizers and modifiers of the ECM but also soluble angiogenic growth factors such as VEGF. Although VEGF gene expression can be controlled by multiple transcription factors, its major regulator is hypoxia-inducible factor 1 (HIF-1). HIF-1 mediates activation of VEGF transcription in response to hypoxia in solid tumours and in various malignant cell lines.
To assess its potency in a functional assay, HDF were treated with vehicle or various concentrations of USP7 inhibitor ADC-159 and incubated for 48 hours in hypoxic chamber. Cell culture supernatants were collected, and secreted VEGF was measured by ELISA.
(§1) For the co-culture experiments, 5×10^4 cancer cells were seeded in transwell in 0.5 mL complete growth medium and placed on the top of 0.1×10^6 fibroblasts plated in 12-well in 1 mL low serum growth media overnight. Following day cancer cells were washed with PBS and media replaced with reduced (1%) serum growth media. 0.5×10^6 PBMC were plated on top of fibroblasts, incubated for 45 min and activated with CD3 (1 μg/ml final concentration) and CD28 (5 μg/ml final concentration). […] Monoculture experiments, 0.1×10^6 cells were seeded in 12-well in 1 mL of complete growth media (cancer cells) or low serum growth media (fibroblasts) and incubated overnight. […] Afterwards, cell culture media was collected, cell debris were removed by centrifugation the concentration of VEGF in the cell culture supernatants was measured using the human/mouse VEGF immunoassay Quantikine ELISA kit (R&D systems, Minneapolis, Minn., USA) according to the manufacturer's instructions. For the intracellular VEGF detection, total protein concentration was determined by BCA (Pierce Chemical, USA) and VEGF levels determined using the same kit described above.

HIF-1α = assay: Ubiquitination assay, TUBE pull-down of polyubiquitinated HIF-1α; assay type: cell-based, human; details: HDF, hypoxia; AD-04 1 μM, MG132 10 μM, 1 hour
Experimental: Given HIF-1α stability is known to be regulated at the protein level by ubiquitination, we investigated whether USP7 inhibition modulates HIF-1α polyubiquitination. […] Cells were harvested, lysed and polyubiquitinated proteins pulled down using two types of Tetra Ubiquitin Binding Entities (TUBES); with equal affinity for K48/K63 or 10 times more affinity for […]. Samples were analysed by immuno-blot using a HIF-1α antibody. […] These findings indicate that USP7 inhibition results in K48 polyubiquitination of HIF-1α and consequently, its proteasomal-mediated degradation.
Cells were lysed in a buffer containing 50 mM Tris-HCl, pH 7.5, 150 mM NaCl, 1 mM EDTA, 1% NP-40, 10% Glycerol, 50 mM NaF, 5 mM sodium pyrophosphate, 10 mM glycerol phosphate, 1 mM sodium orthovanadate, protease and phosphatase inhibitor tablet and 50 uM PR-619. Lysates were pre-cleared by centrifugation at 4° C. for 15 mins at 16,000× g and protein concentration determined using BCA method. 20 ul of samples was taken as input. Pre-cleared supernatant containing 0.5 mg of total protein was added to 20 ul equilibrated Agarose-TUBE 1 or TUBE 2 beads (Life Sensors) and incubated for 2 hours at 4° C. on a rocker platform. Beads were collected by low speed centrifugation (1000-5000× g, 4° C.) for 5 minutes and supernatant taken as FT. Beads were washed twice with 1 ml TBS-T (20 mM Tris-HCl, pH 8.0, 0.15M NaCl, 0.1% Tween-20) and collected by low speed centrifugation. Finally, beads were resuspended in 30 ul of SDS reducing sample buffer and boiled for 10 min at 95° C.

[2] = tested on: activated primary fibroblasts WI38, IMR90 and HDF; assay: sVEGF ELISA in activated primary fibroblasts; assay type: cell-based, human; details: cancer cells, immortalized fibroblasts and FGF-2 activated primary fibroblasts, normoxia or hypoxia, 48 hours
From the text: FIG. 5: USP7 inhibition decreased secreted VEGF levels in activated fibroblasts. The USP7-mediated decrease in VEGF secretion observed in the co-cultures can be solely attributed to modulation of secreted VEGF in primary fibroblasts.
(FIG. 4). […] During the wound healing process or following stimulation by acute or chronic inflammatory signals, fibroblasts acquire an activated phenotype (referred to as myofibroblasts). Once activated, myofibroblasts proliferate and migrate, show contractile activity, exert physical forces to modify tissue architecture and become transcriptionally active leading to the secretion of cytokines, chemokines and extra-cellular matrix (ECM) components. In the tumour microenvironment, the majority of residual fibroblasts become activated and are known as cancer associated fibroblasts (CAF). In order to generate a myofibroblast phenotype, WI38, IMR90 and HDF were co-cultured with anti-CD3/anti-CD28 stimulated PBMCs or were stimulated by FGF-2 or TGFβ. […] The USP7 inhibitor-mediated decrease in VEGF secretion was only observed in primary fibroblasts; immortalized lung fibroblasts (WI38-VA13) were insensitive to USP7 inhibitor treatment, probably due to the destabilized p53 in the SV-40 immortalized fibroblasts (FIG. 7).
as §1

[3] = tested on: CT-26 cells in BALB/C mice; assay: CT-26 syngeneic tumour model (AD-04 study)
Experimental: FIG. 30: Effect of USP7 on the tumour microenvironment in vivo.
For subcutaneous tumour implantation, CT26 cells were injected subcutaneously (1×10^6cells in 200 μL of RPMI) in the right flank of 8- to 10-week-old BALB/c female mice. […] Tumour volume (in mm^3) was measured twice a week with a digital caliper and calculated by the following formula: volume=(width)^2×length/2. Body weight was measured twice a week. […]

MMP-7 = MMP-7 in supernatants of HDF invasion assay (Luminex); assay type: cell-based, human; details: invading HDF, 96 hours
Experimental: The scratch wound cell invasion assay was used to measure the ability of primary human fibroblasts to invade through Matrigel® basement membrane. Cell culture supernatants from invasion assay were collected after 96 hours and MMP-7 levels were measured using Luminex®.
To further explore whether USP7 inhibition modulates MMP levels in invading fibroblasts, cell culture supernatants from HDF invasion assay were collected and presence of various MMP was detected using Luminex® Multiplex assay.
(§2) Concentrations of MMP2 and MMP7 were determined in cell culture supernatants in triplicates using Luminex human cytokine/chemokine multiplex kits (Millipore, St. Charles, Mo., USA) according to the manufacturer's protocol.

MMP-2 = MMP-2 in supernatants of HDF and HUVEC co-culture (Luminex); assay type: cell-based, human; details: supernatants after 14 days
Experimental: Cell culture supernatants from tube formation were collected and MMP-2 levels were measured using Luminex®.
Next, the underlying mechanism of tube formation inhibition was investigated. […] To determine whether secretion of MMP-2 is modulated by USP7 inhibition, supernatants from HUVEC and HDF co-cultures were collected after 14 days.
as §2

Compound | VEGF secretion under hypoxia [1] | secretion of VEGF (benchmark against MDM2 antagonists) [2] | other results
O=C(c1cnc(C2CC2)o1)N1CCC(O)(Cn2cnc3c(cc(Cl)n3-c3ccc4c(c3)CCO4)c2=O)CC1 [ADC-160, 6-Chloro-3-((1-(2-cyclopropyloxazole-5-carbonyl)-4-hydroxypiperidin-4-yl)methyl)-7-(2,3-dihydrobenzofuran-5-yl)-3,7-dihydro-4H-pyrrolo[2,3-d]pyrimidin-4-One] | Comparable results | – | –
CC1(C(=O)N2CCC(O)(Cn3cnc4c(cc(Cl)n4-c4ccc5c(c4)OCC5)c3=O)CC2)CC1 [ADC-198, 6-Chloro-7-(2,3-dihydrobenzofuran-6-yl)-3-[[4-hydroxy-1-(1-methylcyclopropanecarbonyl)-4-piperidyl]methyl]pyrrolo[2,3-d]pyrimidin-4-One] | Comparable results | – | –
O=C(c1cnc(C2CC2)o1)N1CCC(O)(Cn2cnc3c(cc(Cl)n3-c3ccc4c(c3)OCC4)c2=O)CC1 [ADC-199, 6-Chloro-3-((1-(2-cyclopropyloxazole-5-carbonyl)-4-hydroxypiperidin-4-yl)methyl)-7-(2,3-dihydrobenzofuran-6-yl)-3,7-dihydro-4H-pyrrolo[2,3-d]pyrimidin-4-One] | Comparable results | – | –
CC1(C(=O)N2CCC(O)(Cn3cnc4c(cc(Cl)n4-c4ccc5c(c4)OCO5)c3=O)CC2)CC1 [ADC-556, 7-(Benzo[d][1,3]dioxol-5-yl)-6-chloro-3-((4-hydroxy-1-(1-methylcyclopropane-1-carbonyl)piperidin-4-yl)methyl)-3,7-dihydro-4H-pyrrolo[2,3-d]pyrimidin-4-One] | Comparable results | – | –
CC(C)C[C@@H](C=O)NC(=O)[C@H](CC(C)C)NC(=O)[C@H](CC(C)C)NC(=O)OCc1ccccc1 [MG132, reference compound] (Cbz-Leu-Leu-Leu-aldehyde) | – | – | K63/K48 polyubiquitinated HIF-1α (HIF-1α): increased polyubiquitination
COc1ccc(C2=N[C@@H](c3ccc(Cl)cc3)[C@@H](c3ccc(Cl)cc3)N2C(=O)N2CCNC(=O)C2)c(OC(C)C)c1 [Nutlin-3a] | – | not able to modulate | –
CCOc1cc(C(C)(C)C)ccc1C1=N[C@@](C)(c2ccc(Cl)cc2)[C@@](C)(c2ccc(Cl)cc2)N1C(=O)N1CCN(CCCS(C)(=O)=O)CC1 [RG7112] | – | not able to modulate | –
CC(C)(C)C[C@@H]1N[C@@H](C(=O)N[C@H]2CC[C@H](O)CC2)[C@H](c2cccc(Cl)c2F)[C@]12C(=O)Nc1cc(Cl)ccc12 [SAR405838] | – | not able to modulate | –
CNC(=O)c1cc(Oc2ccc(NC(=O)Nc3ccc(Cl)c(C(F)(F)F)c3)cc2)ccn1 [Sorafenib, reference compound] | – | – | tumour growth inhibition ([3]; highest AD-04 dose (subcutaneous infusion), Sorafenib oral positive control, day 15 post tumour implantation): 58%; tolerability, bodyweight of tumour-bearing mice ([3]; mouse, in vivo): no significant bodyweight loss
Avastin: anti-VEGF monoclonal antibody bevacizumab [reference compound] | – | – | MMP-7 levels (MMP-7): did not have significant effect; MMP-2 levels (MMP-2): did not have significant impact

Source: patent publication US20230088286A1, “USP7 INHIBITOR FOR USE IN THE TREATMENT OF CANCER” (ALMAC DISCOVERY LIMITED, priority 2020, published 2023)
